Experimental data: patent publication US20240336595A1, “BIFUNCTIONAL COMPOUNDS FOR DEGRADING BTK WITH DIMINISHED IMID ACTIVITY” (NURIX THERAPEUTICS, INC., priority 2021, published 2024)
“Also recorded” adds a separate entry of the source.

Experiments:
[1] = tested on: intracranial TMD8 tumors; assay: Intracranial TMD8 tumor model, tumor burden; type: in vivo, female CB.17 SCID mice; conditions: 90 mg/kg orally every day for twelve days, vs vehicle
Excerpt: TMD8 is a human activated B cell (ABC)-type diffuse large B cell lymphoma (DLBCL) cell line that is dependent on BTK signaling for survival (Davis, R. E., Ngo, V. N., Lenz, G., Tolar, P., Young, R. M., Romesser, P. B., Staudt, L. M. (2010). Chronic active B-cell-receptor signalling in diffuse large B-cell lymphoma. Nature, 463(7277), 88-92. doi: 10.1038/nature08638).
TMD8 cells were implanted into female CB.17 SCID mice by intracranial injection of 5E5 TMD8 cells. Treatment with compound 1 begun the following day. Mice were treated orally every day for twelve days with either vehicle or 90 mg/kg of Compound 1. Brains were then harvested, dissociated into single cell suspensions and BTK level in TMD8 cells was assessed by flow cytometry. TMD8 cells in dissociated brain tissue were identified by human-specific surface markers (CD20+HLA+) and total numbers of TMD8 cells per brain is reported in (A, tumor burden). Percent BTK remaining in TMD8 cells (B) was calculated according to the below formula: […]

[2] = tested on: collagen-induced arthritis (CIA) model; assay: Collagen-induced arthritis (CIA) model; type: in vivo; conditions: mouse CIA, daily oral 30 mg/kg
Excerpt: Immunization with Collagen Type II (CII) in an adjuvant induces polyarthritis in rodents. This model known as the collagen-induced arthritis (CIA) model, is widely used for studying arthritis and resemble many aspect of the human disease. High level of anti-collagen II correlates with disease severity. In FIG. 1 CIA was induced by immunization with type II collagen in complete Freund's adjuvant on Day 0. A second boost was given on Day 21. Treatment with vehicle or therapeutic agents was initiated on Day 18 and continued to day 35. At the end of the study on Day 36, serum was collected. […] Significance of clinical arthritis score (A) was determined from the area under the curve (AUC) of mean paw scores calculated for individual mice. (C) Serum levels of anti-type II collagen IgG. Statistical significance was determined between vehicle control and treated groups with one-way Kruskal-Wallis ANOVA and Dunn's multiple comparisons test.

[3] = biological target: T1, tumor-expressed BTK (Homo sapiens, UniProt Q06187); assay: Intracranial TMD8 tumor model, BTK remaining in TMD8 cells; type: in vivo, female CB.17 SCID mice; conditions: 90 mg/kg orally every day for twelve days, vs vehicle
T1 construct: endogenous in cells; host or cells: TMD8 cells (human ABC-DLBCL) grown intracranially in CB.17 SCID mice
T1 sequence (Q06187 whole entry): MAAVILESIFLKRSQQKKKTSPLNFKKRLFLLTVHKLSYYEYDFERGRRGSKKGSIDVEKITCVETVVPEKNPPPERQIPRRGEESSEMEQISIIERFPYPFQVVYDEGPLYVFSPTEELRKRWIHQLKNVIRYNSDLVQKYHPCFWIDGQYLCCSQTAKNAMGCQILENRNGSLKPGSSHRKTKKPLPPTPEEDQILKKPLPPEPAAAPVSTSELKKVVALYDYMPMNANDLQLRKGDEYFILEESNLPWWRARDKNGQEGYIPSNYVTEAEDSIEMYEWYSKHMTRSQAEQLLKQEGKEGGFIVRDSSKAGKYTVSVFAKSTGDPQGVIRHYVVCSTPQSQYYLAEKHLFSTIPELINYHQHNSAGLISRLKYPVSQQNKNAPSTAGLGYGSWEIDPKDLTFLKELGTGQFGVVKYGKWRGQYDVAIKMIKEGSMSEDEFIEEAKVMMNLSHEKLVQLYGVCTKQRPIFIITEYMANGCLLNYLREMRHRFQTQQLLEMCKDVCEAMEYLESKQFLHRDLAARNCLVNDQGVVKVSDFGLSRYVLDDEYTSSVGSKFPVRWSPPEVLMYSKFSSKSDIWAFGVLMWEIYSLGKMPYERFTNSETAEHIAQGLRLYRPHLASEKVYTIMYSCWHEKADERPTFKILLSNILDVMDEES
Procedure: TMD8 cells were implanted into female CB.17 SCID mice by intracranial injection of 5E5 TMD8 cells. Treatment with compound 1 begun the following day. Mice were treated orally every day for twelve days with either vehicle or 90 mg/kg of Compound 1. Brains were then harvested, dissociated into single cell suspensions and BTK level in TMD8 cells was assessed by flow cytometry. TMD8 cells in dissociated brain tissue were identified by human-specific surface markers (CD20+HLA+) and total numbers of TMD8 cells per brain is reported in (A, tumor burden). Percent BTK remaining in TMD8 cells (B) was calculated according to the below formula:
100*(tumor BTK MFI−background MFI)/(peak MFI−background MFI),
where background MFI and peak MFI were calculated using TMD8 cells treated, in vitro, overnight with 1 μM compound 1 or DMSO control, respectively. In FIG. 8,**** p<0.0001; Welch's t-test was used to compare mice treated with compound 1 to mice treated with vehicle.

[4] = tested on: plasma cell generation; assay: Plasma cell generation upon NP-KLH immunization; type: in vivo, Mice
Procedure: Mice were immunized by intraperitoneal injection of 200 μL of immunogen containing 100 μg NP-32-KLH (Biosearch Technologies, Cat. N-5060-25,Lot. 156285-01) and 1% Alum (Alhydrogel, 2%, Invivogen Cat. Vac-alu-250, Batch 0001715532, Exp. July 2022), prepared in phosphate buffered saline. Group 1 mice were not immunized and used as control. Mice in Group 2 to 5 were dosed orally once a day from Day 1 to Day 7 with compounds or vehicle for six additional days and then sacrificed the following day. Splenocytes and bone marrow were harvested 24 hours following the final dosing of compound on Day 7. Spleens harvested at the end of the study were dissociated, and red blood cells were lysed with ammonium-chloride-potassium (ACK) lysis buffer. 1 million cells per tissue were stained for each flow cytometry panel.
Splenocytes were stained for lineage markers with fluorophore-conjugated antibodies and for NP hapten reactivity with NP-conjugated to phycoerythrin (NP-PE). Live single lymphocytes were gated for B cells (CD19+B220+) and then gated for IgD+ and IgD− B cells. IgD− B cells were then gated for germinal center B cells (Fas+GL-7+), and germinal center B cells were gated for NP+ cells on the basis of staining with NP-PE.
An ordinary one-way ANOVA with Tukey's multiple comparisons test was performed, and all groups were compared to each other. * p<0.05, ** p<0.01,**** p<0.001. All comparisons without an asterisk were not significant.

[5] = Exposure in cerebrospinal fluid after a single oral dose; type: in vivo, Male C57BL/6 mice; conditions: mouse, single oral dose 300 mg/kg
Procedure: Male C57BL/6 mice were administered Compound 1 orally at 300 mg/kg and 4, 8, or 24 hours after dosing CSF and plasma was collected from three mice per time point. The concentration of Compound 1 in CSF and plasma was determined by LC/MS/MS; free plasma concentration was calculated by multiplying total plasma concentration by the previously determined percentage of Compound 1 unbound to plasma protein.

CN1CCN([C@@H]2CCCN(c3cnc(C(N)=O)c(Nc4ccc(C5CCN(CC6CCN(c7ccc(C(=O)N[C@H]8CCC(=O)NC8=O)nc7)CC6)CC5)cc4)n3)C2)C1=O [Compound 1]
tumor burden (total TMD8 cells per brain) [1]: reduced tumor burden
tumor burden (total TMD8 cells per brain) ([1]; listed as compound 1): significantly reduced TMD8 tumor cells
body weight [2]: minimal effect on body weight; also recorded: minimal body weight loss
mean arthritis score ([2]; Day 18 to day 35): significant benefit; also recorded: lower mean arthritis score than ibrutinib; also recorded: lower mean arthritis score than standard of care agents
BTK in TMD8 tumor cells [3]: degradation of tumor-expressed BTK
BTK in TMD8 tumor cells ([3]; listed as compound 1): degraded BTK
generation of plasma cells upon immunization ([4]; NP-KLH immunization, oral once a day Day 1 to Day 7): significantly decrease
germinal center formation ([4]; following NP-KLH immunization): do not affect
number of B cells in spleen ([4]; following NP-KLH immunization): do not affect
number of IgG1+ plasma cells in spleen ([4]; immunized mice): significantly decrease
number of total Plasma cells in spleen ([4]; immunized mice): significantly decrease
ability to cross the blood brain barrier [5]: crosses the blood brain barrier
exposure in cerebral spinal fluid (CSF) ([5]; 4, 8, 24 hours): demonstrates exposure in cerebral spinal fluid (CSF)
